Values quoted from earlier work as cited in patent publication US20200352795A1, “WETNESS INDICATOR WITH HARDENERS” (SAVARE' I.C. S.r.l., priority 2018, published 2020).

conditions: not given

SMILES	pKa of pH-indicator colorant
Cc1cc(C2(c3cc(C)c(O)c(Br)c3)OS(=O)(=O)c3ccccc32)cc(Br)c1O [Bromocresol Purple Free Acid]	6.3
O=C1OC2(c3cc(Br)c(O)c(Br)c3Oc3c2cc(Br)c(O)c3Br)c2c(Cl)c(Cl)c(Cl)c(Cl)c21 [Acid Phloxine B]	~2.9
O=S1(=O)OC(c2cc(Br)c(O)c(Br)c2)(c2cc(Br)c(O)c(Br)c2)c2ccccc21 [Bromophenol Blue Free Acid]	~4.0

same assay, conditions: Table 1

SMILES	pKa
Cc1c(C2(c3cc(Br)c(O)c(Br)c3C)OS(=O)(=O)c3ccccc32)cc(Br)c(O)c1Br [Bromocresol Green Free Acid]	4.8
O=S(=O)(O)c1ccc(N=C2C=CC(=C(c3ccc(Nc4ccc(S(=O)(=O)O)cc4)cc3)c3ccc(Nc4ccc(S(=O)(=O)O)cc4)cc3)C=C2)cc1 [Aniline Blue (also known as Methyl Blue), Aniline Blue]	11.7
O=C1OC2(c3cc(Br)c(O)c(Br)c3Oc3c2cc(Br)c(O)c3Br)c2c(Cl)c(Cl)c(Cl)c(Cl)c21 [Acid Phloxine B]	2.9
